Source: patent US4954516A, “Use of 1-benzyl-aminoalkyl-pyrrolidinones as antidepressants” (Boehringer Ingelheim KG, priority 1986, dated 1990)

Experiments:
[1] = system: isolated one-day-old chicks; experiment: chick call test (distress call activation in isolated chicks); type: in vivo; conditions: for ED150: Gallus gallus, ip
Excerpt: The call frequency of isolated one-day-old chicks which decreases during the course of the test is taken as an experimental behavioural model for manifestations of resignation in depression. […] Neurol. Psychiat.

Tetrabenazine = Tetrabenazine antagonism (ptosis alleviation, mouse); type: in vivo; conditions: Table 1
cholinergic function = experiment: Effect on cholinergic function; conditions: result in words
[2] = system: adrenergic, serotonergic receptors; experiment: Receptor bonding (adrenergic, serotonergic); type: binding; conditions: for Receptor bonding: result in words
LD50, mouse, oral route = conditions: in vivo, by oral route

O=C1CC(CN2CCOCC2)CN1Cc1ccc(F)cc1 (centres unmarked) [1-(4-Fluorobenzyl)-4-(morpholinomethyl)-pyrrolidin-2-one]
ED150 ([1]; Table II): 80 mg/kg

CN(C)CC1CCC(=O)N1Cc1ccc(Cl)cc1 (centres unmarked) [L, 1-(p-chlorobenzyl)-5-dimethylaminomethyl-pyrrolidin-2-one]
ED150 ([1]; Table II): 0.1 mg/kg

O=C1CCC(CN2CCCC2)N1Cc1ccccc1 (centres unmarked) [K, 1-Benzyl-5-pyrrolidinomethyl-pyrrolidin-2-one]
ED150 ([1]; Table II): 0.1 mg/kg

COc1ccc(CN2CC(CN)CC2=O)cc1 (centres unmarked) [C, 1-(4-Methoxybenzyl)-4-aminomethyl-pyrrolidin-2-one]
ED150 ([1]; Table II): 25 mg/kg

CCN(CC)CC1CCC(=O)N1Cc1ccccc1 (centres unmarked) [J, 1-Benzyl-5-diethylaminomethyl-pyrrolidin-2-one]
ED150 ([1]; Table II): 0.01 mg/kg

1-acetamido-2-pyrrolidinone [Compound B, reference compound]
Chick call test ED150 ([1]; i.p., Table 1): > 160 mg/kg | Tetrabenazine antagonism (ptosis alleviation, mouse) (Tetrabenazine): > 640 mg/kg | Effect on cholinergic function (cholinergic function): none | Receptor bonding [2]: none

CN1CCN(CC2CC(=O)N(Cc3ccccc3)C2)CC1 (centres unmarked) [H, 1-Benzyl-4-(N-methylpiperazinylmethyl)-pyrrolidin-2-one]
ED150 ([1]; Table II): 18 mg/kg

NCC1CC(=O)N(Cc2ccc(F)cc2)C1 (centres unmarked) [D, 1-(4-Fluorobenzyl)-4-aminomethyl-pyrrolidin-2-one]
ED150 ([1]; Table II): 20 mg/kg

NCC1CC(=O)N(Cc2ccccc2)C1 (centres unmarked) [Compound A, 1-benzyl-4-aminomethyl-pyrrolidin-2-one]
ED150 ([1]; Table 1): 40 mg/kg | Tetrabenazine antagonism (ptosis alleviation, mouse) (Tetrabenazine): 100 mg/kg | LD50 (LD50, mouse, oral route): > 2000 mg/kg | Effect on cholinergic function (cholinergic function): Demand | IC50 [2]: > 10 µM | Receptor bonding [2]: none
